Experimental data from patent US5166357A (priority 1988, dated 1992).
Where two headings read alike, the source gives them in different places.

Legend:
muscarinic receptors [1] = assay: Radio ligand binding: displacement of muscarinic agonist 3H-Oxotremorine-M (3H-OXO-M) from rat cerebral cortex membranes; parameters: species or system Hooded Lister rats; settings: 2nM 3H-OXO-M, 2mM magnesium chloride, tris pH 7.7, 37° C., 30 min
muscarinic receptors [2] = format: binding, Hooded Lister rats; settings: 0.27nM 3H-QNB, rat cerebral cortex, tris pH 7.7, 37° C., 30 min

What does the source list for COC(=O)c1ncc(C23CCCN(CC2)C3)o1 (racemic) [Example E9, (±)5-(2-Methoxycarbonyl-1,3-oxazol-5-yl)-1-azabicyclo [3.2.1]octane]?
IC50 (muscarinic receptors [1]): 2000 nM; IC50 (muscarinic receptors [2]): 30.5 µM

What does the source list for Nc1ncc(C2CN3CCC2C3)o1 (racemic) [Example E6, (±) exo and endo 3-(2-Amino-1,3-oxazol-5-yl)-1-azabicyclo[[2.2.1]heptane]?
IC50 (muscarinic receptors [1]): 200 nM; IC50 (muscarinic receptors [2]): 10.3 µM

FCc1ncc(C23CCCN(CC2)C3)o1 (racemic) [Example E12, (±)5-(2-Fluoromethyl-1,3-oxazol-5-yl)-1-azabicyclo [3.2.1]octane] was tested. Which IC50 (muscarinic receptors [1]) did it give?
The IC50 was 5 nM.

What about the IC50 (muscarinic receptors [2]) of the same compound?
Its IC50 is 0.44 µM.

Which IC50 (muscarinic receptors [1]) does the source give for Nc1nc(C23CCCN(CC2)C3)co1 (racemic) [Example E1, (±) 5-(2-Amino-1,3-oxazol-4-yl)-1-azabicyclo[3.2.1]octane] here?
Its IC50 is 250 nM.

And the IC50 (muscarinic receptors [2])?
The IC50 was 42 µM.

What does the source list for Nc1ncc(C23CCCN(CC2)C3)o1 (racemic) [Example E3, (±) 5-(2-Amino-1,3-oxazol-5-yl)-1-azabicyclo[3.2.1]-octane]?
IC50 (muscarinic receptors [1]): 4 nM; IC50 (muscarinic receptors [2]): 3.5 µM

What does the source list for N#Cc1ncc(C23CCCN(CC2)C3)o1 (racemic) [Example E13, (±)5-(2-Cyano-1,3-oxazol-5-yl)-1-azabicyclo[3.2.1]octane]?
IC50 (muscarinic receptors [1]): 380 nM; IC50 (muscarinic receptors [2]): 2.8 µM

What does the source list for Nc1nc(C23CCCN(CC2)C3)cs1 (racemic) [Example E4, (±5-(2-Amino-1,3-thiazol-4-yl)-1-azabicyclo[3.2.1]octane]?
IC50 (muscarinic receptors [1]): 280 nM; IC50 (muscarinic receptors [2]): 5.6 µM

Which results are given for Nc1ncc([C@H]2C[C@@H]3CCN(C3)C2)o1 (relative stereo) [Example E16, (±) exo 3-(2-Amino-1,3-oxazol-5-yl)-1-azabicyclo[3.2.1]octane]?
IC50 (muscarinic receptors [1]): 560 nM; IC50 (muscarinic receptors [2]): 42 µM

For COCc1ncc(C23CCCN(CC2)C3)o1 (racemic) [Example E11, (±)5-(2-Methoxymethyl-1,3-oxazol-5-yl)-1-azabicyclo [3.2.1]octane], which IC50 (muscarinic receptors [1]) is on record?
The IC50 was 220 nM.

What about the IC50 (muscarinic receptors [2]) of the same compound?
Its IC50 is 2.6 µM.

With COCc1ncc(C23CCN(CC2)C3)o1 [Example E17, 4-(2-Methoxymethyl-1,3-oxazol-5-yl)-1-azabicyclo[2.2.1]-heptane] as the compound, how does the IC50 (muscarinic receptors [1]) read?
Its IC50 is 1050 nM.

What about the IC50 (muscarinic receptors [2]) of the same compound?
The IC50 was 60 µM.

Which results are given for Nc1ncc(C2CN3CCC2CC3)o1 (racemic) [Example E2, (±) 3-(2-Amino-1,3-oxazol-5-yl)-1-azabicyclo[2.2.2]octane]?
IC50 (muscarinic receptors [1]): 440 nM; IC50 (muscarinic receptors [2]): 17 µM

For Nc1ncc(C23CCN(CC2)C3)o1 [Example E5], which IC50 (muscarinic receptors [1]) is on record?
The IC50 was 18 nM.

And the IC50 (muscarinic receptors [2])?
Its IC50 is 11 µM.

OCc1ncc(C23CCCN(CC2)C3)o1 (racemic) [Example E10, (±)5-(2-Hydroxymethyl-1,3-oxazol-5-yl)-1-azabicyclo [3.2.1]octane] was tested. Which IC50 (muscarinic receptors [1]) did it give?
The IC50 was 206 nM.

And the IC50 (muscarinic receptors [2])?
The IC50 was 7 µM.
